From EP1972624A1, “Benzoxazinones and their use as ultraviolet light absorbers” (Clariant International Ltd., priority 2007, dated 2008) come the findings set out here.

≈ marks a conversion by molar mass, not a printed value.

Holding throughout (assay type): physicochemical
Data set [1] is described as follows: Decomposition point (DP) by DSC. As to conditions: sealed aluminum pan, 40 to 400°C, 10°C/min, nitrogen. The procedure: The decomposition point (DP) is determined using a TA Instruments DSC Q100 apparatus, the compound being incorporated into a sealed aluminum pan. Analysis conditions are as following: Temperature range from 40 to 400°C, heating rate 10°C/min, nitrogen flow of 50 ml/min. Values are determined by single measurement.
For orientation: Differential scanning calorimetry records heat flow against a reference as temperature is scanned.

A short description of data set [2]: UV/vis: λmax and ε in CH2Cl2 by UV spectrophotometer. As to conditions: dissolved in CH2Cl2. The procedure:
λmax (lambda max) and ε (epsilon) values of the compounds of formula (I) are determined dissolved in CH2Cl2 using an UV spectrophotometer. These values are obtained by balancing the measurements performed on compound solutions at three different concentrations.

The nature of data set [3]: Solubility in organic solvents. The conditions noted are these: for Solubility in Dowanol PMA: Dowanol PMA (CH3COO2CH(CH3)CH2OCH3).

As to `CCCCCCCCCCCCCCCCOc1c(-c2nc3ccccc3c(=O)o2)sc2ccccc12` [(Id)], the “DP (decomposition point)” value in data set [1] came out at 384 °C. In data set [2], this compound gave a εmax of 31900 L/mol/cm and a λmax of 341 nm. Besides, the Solubility in xylene in data set [3] turned out to be 100 mg/mL (≈ 192 mM).

Consider `CCCCCCCCCCCCOc1c(-c2nc3ccccc3c(=O)o2)sc2ccccc12` [(Ic)], for which the “DP (decomposition point)” value in data set [1] was 381 °C. In data set [2], this compound displayed a εmax of 21800 L/mol/cm and a λmax of 342 nm. Further, the Solubility in xylene in data set [3] came to 120 mg/mL (≈ 259 mM).

`CC(=O)Oc1c(-c2nc3ccccc3c(=O)o2)sc2ccccc12` [(If)]: the “DP (decomposition point)” value in data set [1] stood at 351 °C. In data set [2], this compound displayed a εmax of 28700 L/mol/cm and a λmax of 337 nm. Further, in data set [3], the Solubility in xylene is < 10 mg/mL.

Turning to `CCCCCCCCCCCc1c(-c2nc3ccccc3c(=O)o2)sc2ccc(C)cc12` [(Ie)], in data set [1], the “DP (decomposition point)” value is ≥ 400 °C. In data set [2], this compound yielded a εmax of 25900 L/mol/cm and a λmax of 343 nm. In data set [3], this compound gave a Solubility in xylene of 40 mg/mL (≈ 89.4 mM).

Regarding `O=c1oc(-c2sc3ccccc3c2Cl)nc2ccccc12` [(Ij)], in data set [1], the “DP (decomposition point)” value is ≥ 390 °C. In addition, in data set [2], the εmax was 29000 L/mol/cm and the λmax stood at 338 nm. Also, in data set [3], the Solubility in xylene was < 5 mg/mL.

With `O=C(Oc1c(-c2nc3ccccc3c(=O)o2)sc2ccccc12)c1ccccc1` [(Ii)], the “DP (decomposition point)” value in data set [1] was ≥ 400 °C. Also, in data set [2], the εmax is 25500 L/mol/cm and the λmax came to 338 nm. For the same compound, the Solubility in xylene in data set [3] was < 10 mg/mL.

On to `CCCCCCCCOc1c(-c2nc3ccccc3c(=O)o2)sc2ccccc12` [(Ia)], for which, in data set [1], the “DP (decomposition point)” value is 370 °C. Moreover, in data set [2], the εmax turned out to be 26000 L/mol/cm and the λmax is on record as 341 nm. Also, in data set [3], the “Solubility in Dowanol PMA” value is > 50 mg/mL and the Solubility in xylene is > 100 mg/mL.

As for `CCCC(=O)Oc1c(-c2nc3ccccc3c(=O)o2)sc2ccccc12` [(Ig)], in data set [1], the “DP (decomposition point)” value was 352 °C. In data set [2], the εmax worked out at 26400 L/mol/cm and the λmax worked out at 337 nm. Besides, the Solubility in xylene in data set [3] was < 10 mg/mL.

With `CCCCC(CC)C(=O)Oc1c(-c2nc3ccccc3c(=O)o2)sc2ccccc12` (stereo not drawn) [(Ih)], the “DP (decomposition point)” value in data set [1] is 375 °C. In data set [2], this compound came in with a εmax of 24100 L/mol/cm and a λmax of 337 nm. This compound gave a Solubility in xylene in data set [3] of 10 mg/mL (≈ 23.7 mM).

In the case of `CCCCC(CC)COc1c(-c2nc3ccccc3c(=O)o2)sc2ccccc12` (stereo not drawn) [(Ib)], the “DP (decomposition point)” value in data set [1] came to 385 °C. Further, in data set [2], the εmax came out at 26200 L/mol/cm and the λmax is 341 nm. In data set [3], the “Solubility in Dowanol PMA” value was > 50 mg/mL and the Solubility in xylene is > 100 mg/mL.
